In patent publication US12122763B2, “Substituted piperidines for androgen receptor degradation” (UBIX THERAPEUTICS, INC., priority 2020, dated 2024):

Molecular target: T1, Androgen Receptor (AR) protein (Homo sapiens, UniProt P10275, T878A)
T1 construct: endogenous in cells; host or cells: LNCaP
Experiment: Androgen Receptor (AR) protein degradation assay in LNCaP cells, western blotting
Format: cell-based
Settings: 20 h; for inhibition at 0.01 µM: 0.01 μM compound; for inhibition at 0.1 µM: 0.1 μM compound; for inhibition at 1 µM: 1 μM compound
Description: Experimental Example 1: Androgen Receptor (AR) Protein Degradation Assay
After treating LNCaP cells with the synthesized Example compound, the amount of AR protein present in the cells was measured. The amount of AR protein was measured using western blotting detection method. The protocol of the experiment using LNCaP cells was as follows:
[Culture] LNCaP cells were resuspended in RPMI1640 MEDIUM (Hyclone, SH30027.01), 10% FBS (Hyclone, SV30207.02), and 1% Penicillin-streptomycin (Welgene, LS 202-02) media to be 3×10^5/mL. Then, 1 mL each was seeded in a 12-well plate. After that, they were cultured for 3 days.
[Compound treatment] 10 μl of 0.1, 1, 10, and 100 μM compound, which is the final compound treatment concentration and a 100× stock of 0.001, 0.01, 0.1, and 1 μM, was added in 1 ml media of each well, and 20 hours later, the cells were harvested.
[Cell Lysis] Cell pellets were suspended using 1% SDS lysis buffer (50 mM Tris, 1 mM EDTA, 1% SDS, pH 8.0, 0.5 mM PMSF, 1× Protease/Phosphatase inhibitor Cocktail (Cell Signaling Technology, 5872s)), and sonication (70% AMP, 5 cycles (30 sec ON/59 sec OFF)) was performed. Cell lysate was obtained after centrifugation at 4° C., 15000 g, for 20 minutes.
[Protein quantification] A BCA protein assay (SMART™ BCA Protein Assay Kit, iNtRON Biotechnology, 21071) was performed using a 96-well microplate. After adding 5 μl cell lysate and 5 μl 1% SDS lysis buffer to each well of the 96-well plate, 200 μl of BCA reagent (Reagent A:Reagent B=50:1) was additionally added. After incubation at 37° C. for 30 minutes, it was cooled at room temperature for 10 minutes. Then, absorbance was measured at a wavelength of 562 nm. The unknown protein concentration was measured using a BSA standard curve (0, 0.125, 0.25, 0.5, 1, 2 mg/ml). Western blotting samples were prepared by mixing cell lysate, 1% SDS lysis buffer, 4× Bolt™ LDS Sample buffer (Invitrogen, B0008), and 10× Bolt™ Sample Reducing Agent (Invitrogen, B0009) and boiling the mixture at 70° C. for 10 minutes.
[Electrophoresis] After loading 8 μg of protein sample into each well of Bolt™ 4 to 12%, Bis-Tris, 1.0 mm Mini Protein Gel, 17-well (Invitrogen, NW04127BOX), Bolt™ MES SDS Running Buffer (Invitrogen, B0002) was used for electrophoresis at 200V (constant V) for 50 minutes.
[Transfer] Using electrophoresis gel and Trans-Blot® Turbo™ Transfer Starter System (Bio-RAD, #17001918, Mini Nitrocellulose), transfer proceeded for 15 minutes under the condition of 1.3A (Constant A) and 25V (Limit V). To confirm protein transfer, 15 ml of Ponceau S solution (Sigma, P7170-1L) was used for staining for 1 minute, followed by washing to confirm the degree of transfer.
[Blocking] Membranes for AR detection were blocked for 45 minutes with 5% skim milk/0.2% TBST (Skim milk: BD, 232100/20× TBS: Biosesang, TR2008-100-00/10% Tween 20 Solution: Bio-RAD, #161-0781). Membranes for GAPDH and β-actin detection were blocked for 45 minutes with Odyssey blocking buffer: 0.1% TBST=1:1 (Odyssey blocking buffer: Li-COR Biosciences, 927-50000).
[Antibody and detection] The primary AR antibody (Androgen Receptor: CST, 5153s) was mixed with 5% skim milk/0.2% TBST at a ratio of 1:1000 and attached for 3 hours at room temperature. Primary β-actin antibody (GeneTex, 629630) was mixed with 5% BSA/0.2% TBST at a ratio of 1:2000 and attached for 3 hours at room temperature. Primary GAPDH antibody (GeneTex, 100118) was mixed with 5% BSA/0.2% TBST at a ratio of 1:2000 and attached for 3 hours at room temperature. After 3 hours, it was washed 3 times every 5 minutes using TBST (0.2% Tween 20). Anti-rabbit IgG, HRP-linked Antibody (CST, 7074s), secondary antibody for the AR antibody was mixed with 5% skim milk/0.2% TBST at a ratio of 1:5000 and attached for 45 minutes at room temperature. […]

T1 sequence (P10275 whole entry T878A): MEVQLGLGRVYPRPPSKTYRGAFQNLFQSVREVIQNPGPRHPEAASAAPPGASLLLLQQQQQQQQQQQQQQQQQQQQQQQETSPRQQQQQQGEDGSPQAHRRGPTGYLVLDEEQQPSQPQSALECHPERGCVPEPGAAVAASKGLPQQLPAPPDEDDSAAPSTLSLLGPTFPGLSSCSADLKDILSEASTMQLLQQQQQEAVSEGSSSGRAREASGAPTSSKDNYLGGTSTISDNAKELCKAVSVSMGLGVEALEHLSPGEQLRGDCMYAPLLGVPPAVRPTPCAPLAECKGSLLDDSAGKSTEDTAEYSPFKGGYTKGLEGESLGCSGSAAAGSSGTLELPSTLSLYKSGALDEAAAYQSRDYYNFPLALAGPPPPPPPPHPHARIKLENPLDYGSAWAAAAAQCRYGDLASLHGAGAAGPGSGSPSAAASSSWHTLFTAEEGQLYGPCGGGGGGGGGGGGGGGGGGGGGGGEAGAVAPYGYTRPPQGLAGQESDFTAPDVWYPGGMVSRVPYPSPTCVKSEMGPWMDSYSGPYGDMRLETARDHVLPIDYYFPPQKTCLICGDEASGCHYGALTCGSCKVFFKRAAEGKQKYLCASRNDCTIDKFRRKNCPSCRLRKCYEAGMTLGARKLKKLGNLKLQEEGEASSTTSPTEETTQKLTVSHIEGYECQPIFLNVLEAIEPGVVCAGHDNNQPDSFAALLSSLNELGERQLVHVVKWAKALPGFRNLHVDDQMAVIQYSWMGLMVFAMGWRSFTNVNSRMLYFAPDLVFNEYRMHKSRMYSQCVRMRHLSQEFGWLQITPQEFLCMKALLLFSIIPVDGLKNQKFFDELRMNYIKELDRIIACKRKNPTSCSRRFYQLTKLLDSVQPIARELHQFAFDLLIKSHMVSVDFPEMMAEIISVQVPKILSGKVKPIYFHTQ
T1 sequence (Q96SW2 whole entry partner): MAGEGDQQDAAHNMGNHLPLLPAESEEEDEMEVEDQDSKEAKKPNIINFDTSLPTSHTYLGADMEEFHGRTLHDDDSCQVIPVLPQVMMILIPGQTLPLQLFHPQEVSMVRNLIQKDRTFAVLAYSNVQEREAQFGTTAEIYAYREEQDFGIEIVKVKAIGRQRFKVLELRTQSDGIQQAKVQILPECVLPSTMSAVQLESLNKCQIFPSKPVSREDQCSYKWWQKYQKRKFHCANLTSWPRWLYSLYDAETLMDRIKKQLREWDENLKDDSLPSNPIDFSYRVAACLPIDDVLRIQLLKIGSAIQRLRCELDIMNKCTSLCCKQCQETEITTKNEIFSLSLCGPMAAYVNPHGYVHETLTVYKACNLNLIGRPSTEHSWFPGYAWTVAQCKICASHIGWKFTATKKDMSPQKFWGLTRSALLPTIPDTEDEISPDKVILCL

Row | SMILES | inhibition at 0.01 µM [%] | inhibition at 0.1 µM [%] | inhibition at 1 µM [%]
1 | C[C@@H]1CN(CC2CCN(c3ccc(NC(=O)C4CCN(c5ccc(C#N)c(C(F)(F)F)c5)CC4)nc3)CC2)CCN1CC1CCN(c2ccc3c(c2)C(=O)N(C2CCC(=O)NC2=O)C3=O)CC1 (stereo partly drawn) [Example 25, 1-(4-cyano-3-(trifluoromethyl)phenyl)-N-(5-(4-(((3R)-4-((1-(2-(2,6-dioxopiperidin-3-yl)-1,3-dioxoisoindolin-5-yl)piperidin-4-yl)methyl)-3-methylpiperazin-1-yl)methyl)piperidin-1-yl)pyridin-2-yl)piperidine-4-carboxamide] | 73 | 98 | 98
2 | C[C@@H]1CN(CC2CCN(c3ccc(NC(=O)C4CCN(c5ccc(C#N)c(C(F)(F)F)c5)CC4)nc3)CC2)CCN1CC1CN(c2ccc3c(c2)C(=O)N(C2CCC(=O)NC2=O)C3=O)C1 (stereo partly drawn) [Example 26, 1-(4-cyano-3-(trifluoromethyl)phenyl)-N-(5-(4-(((3R)-4-((1-(2-(2,6-dioxopiperidin-3-yl)-1,3-dioxoisoindolin-5-yl)azetidin-3-yl)methyl)-3-methylpiperazin-1-yl)methyl)piperidin-1-yl)pyridin-2-yl)piperidine-4-carboxamide] | 75 | 98 | 98
3 | N#Cc1ccc(N2CCC(C(=O)Nc3ccc(N4CC(CN5CCN(CC6CCN(c7ccc8c(c7)C(=O)N(C7CCC(=O)NC7=O)C8=O)CC6)CC5)C4)cn3)CC2)cc1C(F)(F)F (stereo not drawn) [Example 27, 1-(4-cyano-3-(trifluoromethyl)phenyl)-N-(5-(3-((4-((1-(2-(2,6-dioxopiperidin-3-yl)-1,3-dioxoisoindolin-5-yl)piperidin-4-yl)methyl)piperazin-1-yl)methyl)azetidin-1-yl)pyridin-2-yl)piperidine-4-carboxamide] | 78 | 97 | 97
4 | N#Cc1ccc(N2CCC(C(=O)Nc3ccc(N4CC(CN5CCN(C[C@H]6CCN(c7ccc8c(c7)C(=O)N(C7CCC(=O)NC7=O)C8=O)C6)CC5)C4)cn3)CC2)cc1C(F)(F)F (stereo partly drawn) [Example 28, 1-(4-cyano-3-(trifluoromethyl)phenyl)-N-(5-(3-((4-(((3R)-1-(2-(2,6-dioxopiperidin-3-yl)-1,3-dioxoisoindolin-5-yl)pyrrolidin-3-yl)methyl)piperazin-1-yl)methyl)azetidin-1-yl)pyridin-2-yl)piperidine-4-carboxamide] | 82 | 96 | 95
5 | N#Cc1ccc(N2CCC(C(=O)Nc3ccc(N4CC(CN5CCN(C[C@@H]6CCN(c7ccc8c(c7)C(=O)N(C7CCC(=O)NC7=O)C8=O)C6)CC5)C4)cn3)CC2)cc1C(F)(F)F (stereo partly drawn) [Example 29, 1-(4-cyano-3-(trifluoromethyl)phenyl)-N-(5-(3-((4-(((3S)-1-(2-(2,6-dioxopiperidin-3-yl)-1,3-dioxoisoindolin-5-yl)pyrrolidin-3-yl)methyl)piperazin-1-yl)methyl)azetidin-1-yl)pyridin-2-yl)piperidine-4-carboxamide] | 80 | 97 | 97
6 | N#Cc1ccc(N2CCC(C(=O)Nc3ccc(N4CC(CN5CCN(CC6CN(c7ccc8c(c7)C(=O)N(C7CCC(=O)NC7=O)C8=O)C6)CC5)C4)cn3)CC2)cc1C(F)(F)F (stereo not drawn) [Example 30, 1-(4-cyano-3-(trifluoromethyl)phenyl)-N-(5-(3-((4-((1-(2-(2,6-dioxopiperidin-3-yl)-1,3-dioxoisoindolin-5-yl)azetidin-3-yl)methyl)piperazin-1-yl)methyl)azetidin-1-yl)pyridin-2-yl)piperidine-4-carboxamide] | 78 | 99 | 97
7 | C[C@@H]1CN(CC2CN(c3ccc4c(c3)C(=O)N(C3CCC(=O)NC3=O)C4=O)C2)CCN1CC1CN(c2ccc(NC(=O)C3CCN(c4ccc(C#N)c(C(F)(F)F)c4)CC3)nc2)C1 (stereo partly drawn) [Example 31, 1-(4-cyano-3-(trifluoromethyl)phenyl)-N-(5-(3-(((2R)-4-((1-(2-(2,6-dioxopiperidin-3-yl)-1,3-dioxoisoindolin-5-yl)azetidin-3-yl)methyl)-2-methylpiperazin-1-yl)methyl)azetidin-1-yl)pyridin-2-yl)piperidine-4-carboxamide] | 67 | 99 | 97
8 | C[C@@H]1CN(CC2CN(c3ccc(NC(=O)C4CCN(c5ccc(C#N)c(C(F)(F)F)c5)CC4)nc3)C2)CCN1CC1CN(c2ccc3c(c2)C(=O)N(C2CCC(=O)NC2=O)C3=O)C1 (stereo partly drawn) [Example 32, 1-(4-cyano-3-(trifluoromethyl)phenyl)-N-(5-(3-(((3R)-4-((1-(2-(2,6-dioxopiperidin-3-yl)-1,3-dioxoisoindolin-5-yl)azetidin-3-yl)methyl)-3-methylpiperazin-1-yl)methyl)azetidin-1-yl)pyridin-2-yl)piperidine-4-carboxamide] | 62 | 99 | 99
9 | N#Cc1ccc(N2CCC(C(=O)Nc3ccc(N4CCC(CN5CCN(C6CN(c7ccc8c(n7)CN(C7CCC(=O)NC7=O)C8=O)C6)CC5)CC4)cn3)CC2)cc1C(F)(F)F (stereo not drawn) [Example 33, 1-(4-cyano-3-(trifluoromethyl)phenyl)-N-(5-(4-((4-(1-(6-(2,6-dioxopiperidin-3-yl)-5-oxo-6,7-dihydro-5H-pyrrolo[3,4-b]pyridin-2-yl)azetidin-3-yl)piperazin-1-yl)methyl)piperidin-1-yl)pyridin-2-yl)piperidine-4-carboxamide] | 54 | 90 | 72
10 | N#Cc1ccc(N2CCC(C(=O)Nc3ccc(N4CCC(CN5CCN(CC6CCN(c7ccc8c(n7)CN(C7CCC(=O)NC7=O)C8=O)CC6)CC5)CC4)cn3)CC2)cc1C(F)(F)F (stereo not drawn) [Example 34, 1-(4-cyano-3-(trifluoromethyl)phenyl)-N-(5-(4-((4-((1-(6-(2,6-dioxopiperidin-3-yl)-5-oxo-6,7-dihydro-5H-pyrrolo[3,4-b]pyridin-2-yl)piperidin-4-yl)methyl)piperazin-1-yl)methyl)piperidin-1-yl)pyridin-2-yl)piperidine-4-carboxamide] | 88 | 99 | 96
11 | N#Cc1ccc(N2CCC(C(=O)Nc3ccc(N4CCC(CN5CCN(C6CN(c7ccc8c(c7)C(=O)N(C7CCC(=O)NC7=O)C8=O)C6)CC5)CC4)cn3)CC2)cc1C(F)(F)F (stereo not drawn) [Example 35, 1-(4-cyano-3-(trifluoromethyl)phenyl)-N-(5-(4-((4-(1-(2-(2,6-dioxopiperidin-3-yl)-1,3-dioxoisoindolin-5-yl)azetidin-3-yl)piperazin-1-yl)methyl)piperidin-1-yl)pyridin-2-yl)piperidine-4-carboxamide] | 71 | 97 | 95
12 | N#Cc1ccc(N2CCC(C(=O)Nc3ccc(N4CC(CN5CCN(C6CN(c7ccc8c(c7)C(=O)N(C7CCC(=O)NC7=O)C8=O)C6)CC5)C4)cn3)CC2)cc1C(F)(F)F (stereo not drawn) [Example 36, 1-(4-cyano-3-(trifluoromethyl)phenyl)-N-(5-(3-((4-(1-(2-(2,6-dioxopiperidin-3-yl)-1,3-dioxoisoindolin-5-yl)azetidin-3-yl)piperazin-1-yl)methyl)azetidin-1-yl)pyridin-2-yl)piperidine-4-carboxamide] | 66 | 94 | 94
